Reference: US12686680B2, “Substituted pyrazolo[1,5-α]pyrimidines as CRF receptor antagonists” (Neurocrine Biosciences, Inc., priority 2019, dated 2026)

Key:
CRF1 receptor = molecular target: T1, CRF1 receptor (Homo sapiens, UniProt P34998); test: CRF1 receptor binding kinetics (association/dissociation rate constants, method of Fleck et al.); details: for Ki: Ki=k−1/k1, read-out: Kinetic Ki; for k1: association rate constant; for k^−1: dissociation rate constant
T1 sequence (P34998 24-415): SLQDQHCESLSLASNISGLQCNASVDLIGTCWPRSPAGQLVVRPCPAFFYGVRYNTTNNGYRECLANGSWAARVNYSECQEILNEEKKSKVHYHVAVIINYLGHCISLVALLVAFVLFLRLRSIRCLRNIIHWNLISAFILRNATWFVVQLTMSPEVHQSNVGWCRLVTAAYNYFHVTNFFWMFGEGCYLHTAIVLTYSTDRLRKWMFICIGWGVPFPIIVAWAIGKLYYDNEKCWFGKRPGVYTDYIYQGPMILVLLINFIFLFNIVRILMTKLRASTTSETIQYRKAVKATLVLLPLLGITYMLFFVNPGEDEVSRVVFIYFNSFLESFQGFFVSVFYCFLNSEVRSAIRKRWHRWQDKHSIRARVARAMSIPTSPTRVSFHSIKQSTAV
Procedure: The association (k1) and dissociation (k−1) rate constants defining binding of the Compounds to the CRF1 receptor were determined by the method described in Fleck et al. (J. Pharmacology and Experimental Therapeutics, 341(2):518-531, 2012) (hereinafter “Fleck et al.” and incorporated by reference in its entirety). As described therein, the activity of a CRF1 receptor antagonist can be expressed as the kinetically derived affinity (Ki) calculated from the association (k1) and dissociation (k−1) rate constants by the following equation: Ki=k−1/k1
The Compounds listed in Table 5 were evaluated according to these procedures, and the kinetic Ki was determined and found to be as follows: […]

[1] = pKa determination, SiriusT3 UV-metric and pH-metric co-solvent titration; assay type: physicochemical; details: water:CH3OH co-solvent mixtures
Procedure: The pKa was determined using a SiriusT3 (Serial: T317136) with a UV-metric co-solvent titration assay and a pH-metric co-solvent titration assay. For the UV-metric, 10 mM sample was prepared in DMSO with phosphate buffer and placed on the instrument along with a blank prepared with the same composition, absent compound. For pH-metric, an appropriate weight of sample was added to a glass vial to meet buffer capacity requirements, absent of diluent. For each test, pKa was measured in three water:CH3OH ratios. The reported pKas are extrapolated graphically via the Yasuda-Shedlovsky method.

ADX rats = test: Lowering of ACTH in adrenalectomized rats; assay type: in vivo; details: oral, 10 mg/kg single dose, n=11/group

Question: For `CCCN(Cc1ccc(-c2csc(N(C)C)n2)cc1)c1cc(C)nc2c(-c3cnc(N(C)C)cc3C)c(C)nn12` [Compound 1, 5-{7-[({4-[2-(dimethylamino)-1,3-thiazol-4-yl]phenyl}methyl)(propyl)amino]-2,5-dimethylpyrazolo[1,5-a]pyrimidin-3-yl}-N,N,4-trimethylpyridin-2-amine], which Ki (CRF1 receptor) is on record?
Answer: < 0.22 nM

Question: And the k1 (CRF1 receptor)?
Answer: 4.9 ± 1.7 10^6M^−1min^−1

Question: What about the “k^−1” value (CRF1 receptor) of the same molecule?
Answer: <0.001 min⁻¹

Question: And the pKa ([1]; UV-metric method, Yasuda-Shedlovsky extrapolation from water:CH3OH)?
Answer: 4.07 ± 0.06

Question: And the pKa ([1]; overall, two methods)?
Answer: ~4.1

Question: And the pKa ([1]; pH-metric method, Yasuda-Shedlovsky extrapolation from water:CH3OH)?
Answer: 4.06 ± 0.08

Question: What about the “duration of lowering of plasma ACTH levels” value (ADX rats) of the same molecule?
Answer: up to 5 hours

Question: What about the “plasma ACTH levels” value (ADX rats) of the same molecule?
Answer: significantly lowered

Question: With `CCCN(Cc1ccc(-n2cccn2)cc1)c1cc(C)nc2c(-c3cnc(N(C)C)cc3C)c(C)nn12` [Compound 9, 5-{2,5-dimethyl-7-[propyl({[4-(1H-pyrazol-1-yl)phenyl]methyl})amino]pyrazolo[1,5-a]pyrimidin-3-yl}-N,N,4-trimethylpyridin-2-amine] as the molecule, how does the Ki (CRF1 receptor) read?
Answer: < 0.29 nM

Question: And the k1 (CRF1 receptor)?
Answer: 3.5 ± 1.1 10^6M^−1min^−1

Question: What about the “k^−1” value (CRF1 receptor) of the same molecule?
Answer: <0.001 min⁻¹

Question: Which results are given for `CCCN(Cc1ccc(-n2cncn2)cc1)c1cc(C)nc2c(-c3cnc(N(C)C)cc3C)c(C)nn12` [Compound 10, 5-{2,5-dimethyl-7-[propyl({[4-(1H-1,2,4-triazol-1-yl)phenyl]methyl})amino]pyrazolo[1,5-a]pyrimidin-3-yl}-N,N,4-trimethylpyridin-2-amine]?
Answer: Ki (CRF1 receptor): 0.95 nM; k1 (CRF1 receptor): 2.2 10^6M^−1min^−1; k^−1 (CRF1 receptor): 0.0021 min⁻¹

Question: What does the source list for `CCCN(Cc1ccc(-c2csc(NC)n2)cc1)c1cc(C)nc2c(-c3cnc(N(C)C)cc3C)c(C)nn12` [Compound 11, 5-{2,5-dimethyl-7-[({4-[2-(methylamino)-1,3-thiazol-4-yl]phenyl}methyl)(propyl)amino]pyrazolo[1,5-a]pyrimidin-3-yl}-N,N,4-trimethylpyridin-2-amine]?
Answer: Ki (CRF1 receptor): 0.72 nM; k1 (CRF1 receptor): 2.4 +/− 0.2 10^6M^−1min^−1; k^−1 (CRF1 receptor): 0.0017 min⁻¹
